Experimental findings from BindingDB's records for doi:10.1021/jm010216r (Academia Sinica, 2001) are described below.

For orientation: Ki means the dissociation constant of the complex between target and ligand, obtained from inhibition or displacement. Low readings indicate a stronger hold on the target, high ones a looser hold on the target.

The assay can be described thus: Inhibitory activity against PRPP synthetase.

`Nc1ncnc2ncn(CCOCP(=O)(O)O)c12` [[2-(6-Amino-purin-7-yl)-ethoxymethyl]-phosphonic acid] yielded a Ki of 17 mM.
